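Abbreviation: GI50, concentration required for 50% inhibition of growth. The concentration for full growth arrest is given as TGI.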
Key:
Test in all cases: NCI tumour cell line growth inhibition, 384-well format
OVCAR-4 ovarian = system: OVCAR-4 ovarian
MDA-MB-231 breast = system: MDA-MB-231 breast
CCRF-CEM leukemia = system: CCRF-CEM leukemia
RXF 393 renal = system: RXF 393 renal
HOP-62 NSCLC = system: HOP-62 NSCLC
A498 renal = system: A498 renal
MDA-MB-468 breast = system: MDA-MB-468 breast
NCI-H23 lung = system: NCI-H23 lung
SF-268 CNS = system: SF-268 CNS
SW-620 colon = system: SW-620 colon
HCC-2998 colon = system: HCC-2998 colon
OVCAR-8 ovarian = system: OVCAR-8 ovarian
SNB-19 CNS = system: SNB-19 CNS
IGROV1 ovarian = system: IGROV1 ovarian
CAKI-1 renal = system: CAKI-1 renal
786-0 renal = system: 786-0 renal
NCI-H226 lung = system: NCI-H226 lung
HL-60(TB) leukemia = system: HL-60(TB) leukemia
HOP-92 NSCLC = system: HOP-92 NSCLC
UACC-257 melanoma = system: UACC-257 melanoma
KM12 colon = system: KM12 colon
PC-3 prostate = system: PC-3 prostate
OVCAR-5 ovarian = system: OVCAR-5 ovarian
HT29 colon = system: HT29 colon
SNB-75 CNS = system: SNB-75 CNS
UACC-62 melanoma = system: UACC-62 melanoma
NCI-H522 lung = system: NCI-H522 lung
TK-10 renal = system: TK-10 renal
U251 glioblastoma = system: U251 glioblastoma
RPMI-8226 leukemia = system: RPMI-8226 leukemia
BT-549 breast = system: BT-549 breast
OVCAR-3 ovarian = system: OVCAR-3 ovarian
HS 578T breast = system: HS 578T breast
MCF7 breast = system: MCF7 breast
M14 melanoma = system: M14 melanoma
SN12C renal = system: SN12C renal
NCI-H322M lung = system: NCI-H322M lung
HCT-15 colon = system: HCT-15 colon
MOLT-4 leukemia = system: MOLT-4 leukemia
T-47D breast = system: T-47D breast
SF-539 CNS = system: SF-539 CNS
SK-MEL-28 melanoma = system: SK-MEL-28 melanoma
COLO 205 colon = system: COLO 205 colon
SK-MEL-2 melanoma = system: SK-MEL-2 melanoma
DU-145 prostate = system: DU-145 prostate
MDA-MB-435 melanoma = system: MDA-MB-435 melanoma
NCI/ADR-RES ovarian = system: NCI/ADR-RES ovarian
SK-OV-3 ovarian = system: SK-OV-3 ovarian
ACHN renal = system: ACHN renal
A549 NSCLC = system: A549 NSCLC
EKVX NSCLC = system: EKVX NSCLC
SK-MEL-5 melanoma = system: SK-MEL-5 melanoma
SR leukemia = system: SR leukemia
NCI-H460 NSCLC = system: NCI-H460 NSCLC
SF-295 CNS = system: SF-295 CNS

## O=C1c2ccccc2-c2n[nH]c3cccc1c23
OVCAR-4 ovarian
  GI50: 32 µM
  TGI: > 100 µM
MDA-MB-231 breast
  GI50: 13.9 µM
  TGI: > 100 µM
CCRF-CEM leukemia
  GI50: 6 µM
  TGI: 25.2 µM
RXF 393 renal
  GI50: 11.7 µM
  TGI: 81.4 µM
HOP-62 NSCLC
  GI50: 14.8 µM
  TGI: 69.1 µM
A498 renal
  GI50: 3 µM
  TGI: 84.6 µM
MDA-MB-468 breast
  GI50: 2.72 µM
  TGI: 12.5 µM
NCI-H23 lung
  GI50: 19.8 µM
  TGI: > 100 µM
SF-268 CNS
  GI50: 5.72 µM
  TGI: 57 µM
SW-620 colon
  GI50: 11.7 µM
  TGI: > 100 µM
HCC-2998 colon
  GI50: 3.74 µM
  TGI: 43.5 µM
OVCAR-8 ovarian
  GI50: 22.1 µM
  TGI: > 100 µM
SNB-19 CNS
  GI50: 45.1 µM
  TGI: > 100 µM
IGROV1 ovarian
  GI50: 4.82 µM
  TGI: 64.6 µM
CAKI-1 renal
  GI50: 3.39 µM
  TGI: 14.9 µM
786-0 renal
  GI50: 19.2 µM
  TGI: > 100 µM
NCI-H226 lung
  GI50: 2.26 µM
  TGI: 11.7 µM
HL-60(TB) leukemia
  GI50: 10.4 µM
  TGI: > 100 µM
HOP-92 NSCLC
  GI50: 20 µM
  TGI: > 100 µM
UACC-257 melanoma
  GI50: 27.9 µM
  TGI: > 100 µM
KM12 colon
  GI50: 2.78 µM
  TGI: > 100 µM
PC-3 prostate
  GI50: 20.8 µM
  TGI: > 100 µM
OVCAR-5 ovarian
  GI50: 17.8 µM
  TGI: > 100 µM
HT29 colon
  GI50: 11.4 µM
  TGI: > 100 µM
SNB-75 CNS
  GI50: 1.87 µM
  TGI: 41.5 µM
UACC-62 melanoma
  GI50: 15.5 µM
  TGI: > 100 µM
NCI-H522 lung
  GI50: 7.22 µM
  TGI: 53.5 µM
TK-10 renal
  GI50: 4.21 µM
  TGI: > 100 µM
U251 glioblastoma
  GI50: 9.02 µM
  TGI: > 100 µM
RPMI-8226 leukemia
  GI50: 4.09 µM
  TGI: 30 µM
BT-549 breast
  GI50: 3.72 µM
  TGI: 49.7 µM
OVCAR-3 ovarian
  GI50: 20.2 µM
  TGI: > 100 µM
HS 578T breast
  GI50: 5.63 µM
  TGI: 71.2 µM
MCF7 breast
  GI50: 37.4 µM
  TGI: > 100 µM
M14 melanoma
  GI50: 5.93 µM
  TGI: 58.9 µM
SN12C renal
  GI50: 23.3 µM
  TGI: > 100 µM
NCI-H322M lung
  GI50: 32.4 µM
  TGI: > 100 µM
HCT-15 colon
  GI50: 4.63 µM
  TGI: > 100 µM
MOLT-4 leukemia
  GI50: 1.74 µM
  TGI: 3.76 µM
T-47D breast
  GI50: 21.5 µM
  TGI: > 100 µM
SF-539 CNS
  GI50: 8.72 µM
  TGI: 97.4 µM
SK-MEL-28 melanoma
  GI50: 74.8 µM
  TGI: > 100 µM
COLO 205 colon
  GI50: 10.3 µM
  TGI: 26 µM
SK-MEL-2 melanoma
  GI50: 5.03 µM
  TGI: 17 µM
DU-145 prostate
  GI50: 14.7 µM
  TGI: > 100 µM
MDA-MB-435 melanoma
  GI50: 17.4 µM
  TGI: > 100 µM
NCI/ADR-RES ovarian
  GI50: 53.9 µM
  TGI: > 100 µM
SK-OV-3 ovarian
  GI50: 3.03 µM
  TGI: 14.6 µM
ACHN renal
  GI50: 11 µM
  TGI: 46.8 µM
A549 NSCLC
  GI50: 15.8 µM
  TGI: > 100 µM
EKVX NSCLC
  GI50: 4.49 µM
  TGI: > 100 µM
SK-MEL-5 melanoma
  GI50: 5.77 µM
  TGI: 26.6 µM
SR leukemia
  GI50: 2.38 µM
  TGI: 6.99 µM
NCI-H460 NSCLC
  GI50: 6.56 µM
  TGI: 37.6 µM
SF-295 CNS
  GI50: 34.1 µM
  TGI: > 100 µM

— PubChem BioAssay (NCI)
